Measurements as given in publication PMC8957989, “Binding Affinity Characterization of Four Antennae-Enriched Odorant-Binding Proteins From Harmonia axyridis (Coleoptera: Coccinellidae)” (Frontiers in Physiology, 2022).
Where two headings read alike, the source gives them in different places.

What was measured:
HaxyOBP12 = HaxyOBP12 (Harmonia axyridis, UniProt A0A8K1AMY0); assay: Competitive fluorescence binding assay (bis-ANS probe); details: recombinant protein and bis-ANS at 2 μM, Tris-HCl 50 mM pH 7.4; for Ki: Ki = [IC50]/(1 + [bis-ANS]/Kbis-ANS)
Experimental: (§1) The positive plasmid was then transformed into BL21 (DE3) cells for the expression of recombinant proteins, and proteins induced with 0.5 mmol/L isopropyl β-D-1-thiogalactopyranoside (IPTG) for 4 h at 37°C (HaxyOBP3) or 16 h at 15°C (HaxyOBP5, 12, and 15). […] Inclusion bodies were denatured by 8 M urea.
(§2) Protein purification was performed with His-Tag Purification Resin column (Genscript Biology Company, Nanjing, Jiangsu, China) and purified by gradient imidazole buffer (20, 50, 100, 250, and 500 mmol·L^−1). The purity and size of proteins were detected by SDS-PAGE, and concentrations of proteins were measured with bicinchoninic acid (BCA) Protein Assay Kit (ThermoFisher Scientific-Life Technologies, Carlsbad, CA, United States).
(§3) A Cary Eclipse Fluorescence Spectrophotometer (Agilent Technologies, United States) was used to determine the results of the binding assay. N-phenyl-1-naphthylamine (1-NPN) for HaxyOBP15 and 4,4′-Dianilino-1,1′-binaphthyl-5,5′-disulfonic acid dipotassium salt (bis-ANS) for HaxyOBP3, 5, and 12 were chosen as the fluorescent probe.

HaxyOBP3 = HaxyOBP3 (Harmonia axyridis, UniProt A0A8K1AM44); assay: as above; details: recombinant protein and bis-ANS at 2 μM, Tris-HCl 50 mM pH 7.4; for Ki: Ki = [IC50]/(1 + [bis-ANS]/Kbis-ANS)
Experimental: as §1, §2, §3

HaxyOBP5 = HaxyOBP5 (Harmonia axyridis, UniProt A0A8J9RUK3); assay: as above; details: for Ki: Ki = [IC50]/(1 + [bis-ANS]/Kbis-ANS)
Experimental: as §1, §2, §3

HaxyOBP15 [1] = biological target: T1, HaxyOBP15 (Harmonia axyridis, UniProt A0A8K1AM29); assay: Competitive fluorescence binding assay (1-NPN probe); details: for Ki: Ki = [IC50]/(1 + [1-NPN]/K1-NPN)
Experimental: as §1, §2, §3

HaxyOBP15 [2] = biological target: T1, HaxyOBP15; assay: Fluorescent probe binding (titration of protein with probe); details: probe titrated to 2-16 μM, Tris-HCl 50 mM pH 7.4; read-out: dissociation constant of probe with HaxyOBP15
Experimental: A Cary Eclipse Fluorescence Spectrophotometer (Agilent Technologies, United States) was used to determine the results of the binding assay. N-phenyl-1-naphthylamine (1-NPN) for HaxyOBP15 and 4,4′-Dianilino-1,1′-binaphthyl-5,5′-disulfonic acid dipotassium salt (bis-ANS) for HaxyOBP3, 5, and 12 were chosen as the fluorescent probe. The excitation wavelength was 337 nm of 1-NPN and 295 nm of bis-ANS, and the emission spectrum was recorded between 350 and 500 nm for 1-NPN and between 300 and 550 nm for bis-ANS. The recombinant proteins prepared in Tris–HCl (50 mM, pH 7.4) was titrated with aliquots of 1 mM 1-NPN or bis-ANS to final concentrations ranging from 2 to 16 μM to measure the binding affinity. To further measure the binding affinity of ligands to HaxyOBPs, proteins and fluorescent probe at 2 μM were titrated with aliquots of 1 mM odorants. The binding constant (K1-NPN/bis-ANS) of 1-NPN or bis-ANS to HaxyOBPs was calculated by GraphPad Prism 5 software (GraphPad Software Inc.) with the equation Ki = [IC50]/(1 + [1-NPN]/K1-NPN) or [IC50]/(1 + [bis-ANS]/Kbis-ANS), where [1-NPN]/[bis-ANS] is the free concentration of 1-NPN/bis-ANS, and K1-NPN/Kbis-ANS is the dissociation constant of the protein/1-NPN (bis-ANS).

[3] = HaxyOBP5 Ki, recombinant protein and bis-ANS at 2 μM, Tris-HCl 50 mM pH 7.4
[4] = recombinant protein and 1-NPN at 2 μM, Tris-HCl 50 mM pH 7.4
[5] = recombinant protein and 1-NPN at 2 μM, Tris-HCl 50 mM pH 7.4, read-out: HaxyOBP15 IC50

Sequence of HaxyOBP12 (A0A8K1AMY0 entry or part of it): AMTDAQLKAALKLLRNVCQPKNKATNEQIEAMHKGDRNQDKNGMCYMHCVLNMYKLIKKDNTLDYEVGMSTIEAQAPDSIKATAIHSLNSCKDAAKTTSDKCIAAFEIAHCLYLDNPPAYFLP
Sequence of HaxyOBP3 (A0A8K1AM44 entry or part of it): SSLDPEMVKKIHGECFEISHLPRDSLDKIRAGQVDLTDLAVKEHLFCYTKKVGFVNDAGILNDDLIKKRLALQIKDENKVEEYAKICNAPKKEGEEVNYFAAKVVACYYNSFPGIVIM
Sequence of HaxyOBP5 (A0A8J9RUK3 entry or part of it): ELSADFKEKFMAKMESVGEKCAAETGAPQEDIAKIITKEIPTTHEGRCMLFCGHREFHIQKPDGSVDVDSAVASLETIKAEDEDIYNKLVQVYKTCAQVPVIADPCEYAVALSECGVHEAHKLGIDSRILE
T1 sequence (A0A8K1AM29 entry or part of it): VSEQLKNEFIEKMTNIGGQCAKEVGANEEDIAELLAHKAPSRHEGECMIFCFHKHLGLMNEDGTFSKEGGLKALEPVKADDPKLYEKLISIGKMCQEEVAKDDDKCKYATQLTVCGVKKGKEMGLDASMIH

SMILES | Ki (HaxyOBP5; [3]) [µM] | Ki (HaxyOBP15 [1]; [4]) [µM] | IC50 (HaxyOBP15 [1]; [5]) [µM] | IC50 (HaxyOBP15 [1]) [µM] | also measured
COc1ccc(C=O)cc1 [p-Anisaldehyde] | 13.4 ± 0.67 |  |  |  | IC50 (HaxyOBP12): 25.5 ± 1.99 µM; Ki (HaxyOBP12): 16.1 ± 1.21 µM; IC50 (HaxyOBP3): 34.1 ± 1.06 µM; Ki (HaxyOBP3): 24.4 ± 0.37 µM; IC50 (HaxyOBP5): 19.9 ± 0.7 µM
CC(=O)OC/C=C(\C)CCC=C(C)C [Geranyl acetate] |  | 23.4 ± 3.04 | 30.3 ± 3.58 |  | 
C=CC(=C)CC/C=C(\C)CCC=C(C)C [(E)-β-Farnesene] |  | 4.33 ± 0.4 | 5.81 ± 0.46 |  | 
CC(=O)/C=C/C1=C(C)CCCC1(C)C [β-Ionone] | 11.7 ± 0.86 |  |  | 6.99 ± 0.21 | IC50 (HaxyOBP12): 24 ± 1.56 µM; Ki (HaxyOBP12): 15.2 ± 1.06 µM; IC50 (HaxyOBP3): 25.9 ± 2.85 µM; Ki (HaxyOBP3): 18.8 ± 2.14 µM; IC50 (HaxyOBP5): 17.8 ± 1.52 µM
CC(=O)/C=C/C1C(C)=CCCC1(C)C (stereo not drawn) [α-Ionone] |  |  |  | 12 ± 0.56 | 
C=CC(C)(CCC=C(C)C)OC(C)=O (stereo not drawn) [Linalyl acetate] |  |  |  | 40 ± 2.91 | 
CC(=O)CCC1=C(C)CCCC1(C)C [Dihydro-β-ionone] |  | 24 ± 2.65 | 30.9 ± 3.01 |  | 
COC(=O)c1ccccc1O [Methyl salicylate] | 11.7 |  |  |  | Ki (HaxyOBP5; recombinant protein and bis-ANS at 2 μM, Tris-HCl 50 mM pH 7.4, read-out: HaxyOBP5 Ki): 18.1 ± 1.33 µM; IC50 (HaxyOBP5; recombinant protein and bis-ANS at 2 μM, Tris-HCl 50 mM pH 7.4, read-out: HaxyOBP5 IC50): 26.4 ± 1.96 µM
c1ccc(Nc2cccc3ccccc23)cc1 [1-NPN, N-phenyl-1-naphthylamine] |  |  |  |  | Kd (HaxyOBP15 [2]): 5.07 ± 0.31 µM
CCCCCCCCC=O [Nonyl aldehyde] |  | 29.6 ± 1.86 | 38.5 ± 2.03 |  | 
